Eleven compounds from ChEMBL document CHEMBL1201862, “PubChem BioAssay data set” (2004) can be followed below.

The IC50 is the concentration that inhibits the measured activity by half. For orientation: AC50 means the concentration at which the activity in the assay is half-maximal. As usually defined, the EC50 is the concentration needed to bring the measured effect to its halfway point.

The source made the active and inactive calls.

For experiment [1], the target named is T1, Coagulation factor XII (Homo sapiens, UniProt P00748).
T1 sequence (P00748 whole entry): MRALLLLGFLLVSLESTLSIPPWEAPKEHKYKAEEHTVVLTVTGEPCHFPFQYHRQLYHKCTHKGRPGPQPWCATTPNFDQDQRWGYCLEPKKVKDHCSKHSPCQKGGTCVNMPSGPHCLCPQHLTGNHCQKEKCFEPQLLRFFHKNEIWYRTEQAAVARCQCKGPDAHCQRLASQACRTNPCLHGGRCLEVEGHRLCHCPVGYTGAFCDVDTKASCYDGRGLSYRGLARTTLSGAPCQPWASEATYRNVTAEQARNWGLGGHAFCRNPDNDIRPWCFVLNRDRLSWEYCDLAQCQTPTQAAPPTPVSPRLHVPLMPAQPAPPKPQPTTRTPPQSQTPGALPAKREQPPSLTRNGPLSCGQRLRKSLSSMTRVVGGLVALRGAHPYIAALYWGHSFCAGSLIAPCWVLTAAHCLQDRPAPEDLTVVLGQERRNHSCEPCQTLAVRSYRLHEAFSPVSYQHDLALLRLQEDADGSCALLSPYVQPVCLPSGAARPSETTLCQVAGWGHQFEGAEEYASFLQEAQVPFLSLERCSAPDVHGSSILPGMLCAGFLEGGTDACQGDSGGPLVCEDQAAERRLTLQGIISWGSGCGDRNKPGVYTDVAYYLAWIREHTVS
Put plainly: FXIIa inhibitor potency, concentration-response, biochemical (AID 716). In kind it is functional.

Experiment [2] is described as follows: mammalian cell cytotoxicity, dose response, cytotoxicity control, plate reader, cherry-pick samples (AID 504397). The experiment is classed as functional, cell-based.
For experiment [3], the target named is T2, CAAX prenyl protease 2 (Saccharomyces cerevisiae S288c, UniProt Q03530).
T2 sequence (Q03530 whole entry): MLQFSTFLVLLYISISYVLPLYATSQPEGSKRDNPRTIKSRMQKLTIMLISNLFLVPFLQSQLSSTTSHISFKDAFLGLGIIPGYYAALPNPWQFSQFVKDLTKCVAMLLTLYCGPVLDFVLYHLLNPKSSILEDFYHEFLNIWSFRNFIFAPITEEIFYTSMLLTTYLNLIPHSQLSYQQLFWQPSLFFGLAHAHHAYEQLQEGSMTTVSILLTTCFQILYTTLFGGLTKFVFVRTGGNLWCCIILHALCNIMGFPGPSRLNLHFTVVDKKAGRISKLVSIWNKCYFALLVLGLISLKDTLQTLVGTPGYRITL
The experiment is classed as biochemical.

Experiment [4] deals with T3, Heat shock factor protein 1 (Mus musculus, UniProt P38532).
T3 sequence (P38532 whole entry): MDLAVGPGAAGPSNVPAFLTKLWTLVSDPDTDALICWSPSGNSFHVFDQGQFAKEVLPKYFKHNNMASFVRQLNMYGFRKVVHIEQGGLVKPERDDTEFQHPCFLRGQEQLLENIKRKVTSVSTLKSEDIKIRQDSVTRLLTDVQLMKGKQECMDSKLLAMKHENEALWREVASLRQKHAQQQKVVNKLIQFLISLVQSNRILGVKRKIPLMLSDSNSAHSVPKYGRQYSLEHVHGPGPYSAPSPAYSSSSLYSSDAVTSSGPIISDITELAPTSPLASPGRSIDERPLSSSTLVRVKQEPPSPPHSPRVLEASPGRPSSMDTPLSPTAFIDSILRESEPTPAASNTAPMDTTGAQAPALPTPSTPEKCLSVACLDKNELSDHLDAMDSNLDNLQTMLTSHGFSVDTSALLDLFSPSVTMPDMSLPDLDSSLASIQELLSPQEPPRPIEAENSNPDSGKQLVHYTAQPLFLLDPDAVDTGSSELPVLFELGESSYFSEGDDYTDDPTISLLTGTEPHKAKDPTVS
Put plainly: inhibition of MG132-induced HSE-luciferase signal, confirmation, cell-based, NIH3T3, luminescence, dose retest (AID 2382).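 Also: NIH3T3 fibroblasts with HSF1-driven luciferase reporter stressed by proteasome inhibitor MG132; luminescence from HSF1-driven luciferase expression after 8 hours of MG132 stress.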 In kind it is functional.

Experiment [5] has as its target SUMO-activating enzyme (Homo sapiens, UniProt Q9UBT2). As to the kind of experiment: SUMOylation inhibitor hit validation, confirmation, SUMOylation inhibitor project, biochemical, AlphaScreen (AID 2018). The experiment is classed as functional.
Experiment [6] has as its target T4, Type-1 angiotensin II receptor (Homo sapiens, UniProt P30556).
T4 sequence (P30556 whole entry): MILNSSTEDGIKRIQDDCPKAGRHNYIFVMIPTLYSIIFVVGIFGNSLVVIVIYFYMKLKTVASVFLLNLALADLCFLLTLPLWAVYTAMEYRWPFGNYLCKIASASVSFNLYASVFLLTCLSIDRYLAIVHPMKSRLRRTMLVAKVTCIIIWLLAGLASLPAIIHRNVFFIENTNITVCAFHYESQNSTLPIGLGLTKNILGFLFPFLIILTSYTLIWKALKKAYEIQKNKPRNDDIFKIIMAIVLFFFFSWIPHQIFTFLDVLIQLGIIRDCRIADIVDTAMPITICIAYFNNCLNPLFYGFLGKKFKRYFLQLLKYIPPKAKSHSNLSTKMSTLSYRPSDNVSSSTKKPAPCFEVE
Put plainly: AT1 receptor agonists, dose response, selectivity assay for APJ receptor agonist project, cell-based, uHTS hits (AID 488865).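 Also: beta-arrestin recruitment to AT1 measured by enzyme fragment complementation luminescence.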 In kind it is functional.

Experiment [7] can be described thus: cytotoxicity toward NIH3T3 fibroblasts, dose response, counter-screen, cell-based, ATP luminescence, mouse fibroblasts (AID 2010).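 Also: cells exposed to compound for about 90 hours before reading.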 In kind it is functional.
Experiment [8] is described as follows: inhibitors of intracellular T. cruzi replication, confirmation, NIH3T3 host cells, beta-gal luminescence (AID 2044).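 Also: intracellular parasites grown in NIH/3T3 mouse fibroblasts as host cells; luminescent beta-galactosidase reporter signal from transgenic T. cruzi replicating inside host cells; inhibitors lower the luminescence signal.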 In kind it is functional, cell-based.
The subject of experiment [9] is HEK293. As to the kind of experiment: inhibitors of LMP1-driven NF-kB reporter, dose response, cell-based, HEK293, luciferase, cherry-pick (AID 588343). The note with it: Homo sapiens. In kind it is functional.
Experiment [10] addresses T5, Runt-related transcription factor 1/Core-binding factor subunit beta (Homo sapiens, UniProt Q01196+Q13951). Put plainly: inhibitors of RUNX1 Runt–CBFb-SMMHC binding, biochemical, TR-FRET (AID 1438). In kind it is protein assay. In general terms: Time-resolved FRET reads energy transfer from a long-lived donor to a nearby acceptor.
Experiment [11] concerns the target T5, Runt-related transcription factor 1/Core-binding factor subunit beta. Put plainly: inhibitors of RUNX1 Runt–CBFb-SMMHC binding, primary screen, biochemical, FRET, Cerulean-Runt, Venus-CBFb-SMMHC, uHTS (AID 1434).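 Also: partner is the CBFb-SMMHC leukemia fusion protein rather than wild-type CBFb.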 The experiment is classed as protein assay.
Experiment [12] in a line: C. albicans growth with fluconazole, confirmation, fluorescence, retest (AID 2467). In kind it is functional, cell-based.
Experiment [13] in a line: NIH-3T3 fibroblast cytotoxicity, dose response, cytotoxicity control, cell-based, fluorescence, Alamar Blue, secondary assay (AID 2327).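 Also: NIH-3T3 mouse fibroblasts cultured with fluconazole at 8 µg/mL.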 The experiment is classed as functional. (In general: Resazurin is reduced to fluorescent resorufin, in cell work by metabolically active cells.)
Experiment [14] deals with T6, Mannose-6-phosphate isomerase (Homo sapiens, UniProt P34949).
T6 sequence (P34949 whole entry): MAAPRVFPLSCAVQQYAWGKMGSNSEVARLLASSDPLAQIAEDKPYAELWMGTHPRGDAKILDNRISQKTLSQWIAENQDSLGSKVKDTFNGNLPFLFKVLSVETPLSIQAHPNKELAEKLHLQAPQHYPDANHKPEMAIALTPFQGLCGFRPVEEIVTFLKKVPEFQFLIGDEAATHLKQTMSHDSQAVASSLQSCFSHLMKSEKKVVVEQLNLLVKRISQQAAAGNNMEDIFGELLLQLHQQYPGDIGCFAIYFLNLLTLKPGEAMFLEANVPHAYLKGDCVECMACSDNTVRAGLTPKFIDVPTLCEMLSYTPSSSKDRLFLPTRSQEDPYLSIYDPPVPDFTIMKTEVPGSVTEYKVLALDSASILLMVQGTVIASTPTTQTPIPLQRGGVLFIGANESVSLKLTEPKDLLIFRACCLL
As to the kind of experiment: human PMI inhibitors, high substrate, primary screen, biochemical, fluorescence intensity, high mannose 6-phosphate (AID 1220).

The target in experiment [15] is Induced myeloid leukemia cell differentiation protein Mcl-1 (Homo sapiens, UniProt Q07820). The experiment is classed as functional.
The target of experiment [16] is Prothrombin (Bos taurus, UniProt P00735). As to the kind of experiment: thrombin inhibition, dose response, biochemical, fluorescence polarization, uHTS hits (AID 602369). In kind it is functional. (Polarisation of emitted light reports the rotation of a fluorescent probe.)
Experiment [17] addresses 26S proteasome non-ATPase regulatory subunit 14 (Homo sapiens, UniProt O00487). As to the kind of experiment: inhibition of proteasome subunit RPN11 – biochemical, fluorescence polarization, uHTS hits, confirmation (AID 602368). The experiment is classed as functional.
Experiment [18] concerns the target 72 kDa type IV collagenase (Homo sapiens, UniProt P08253). As to the kind of experiment: Dose Response validation of uHTS RPN11 inhibitor hits using a MMP-2 Fluorescence assay. In kind it is functional.
The target in experiment [19] is T7, Aryl hydrocarbon receptor (Homo sapiens, UniProt P35869).
T7 sequence (P35869 whole entry): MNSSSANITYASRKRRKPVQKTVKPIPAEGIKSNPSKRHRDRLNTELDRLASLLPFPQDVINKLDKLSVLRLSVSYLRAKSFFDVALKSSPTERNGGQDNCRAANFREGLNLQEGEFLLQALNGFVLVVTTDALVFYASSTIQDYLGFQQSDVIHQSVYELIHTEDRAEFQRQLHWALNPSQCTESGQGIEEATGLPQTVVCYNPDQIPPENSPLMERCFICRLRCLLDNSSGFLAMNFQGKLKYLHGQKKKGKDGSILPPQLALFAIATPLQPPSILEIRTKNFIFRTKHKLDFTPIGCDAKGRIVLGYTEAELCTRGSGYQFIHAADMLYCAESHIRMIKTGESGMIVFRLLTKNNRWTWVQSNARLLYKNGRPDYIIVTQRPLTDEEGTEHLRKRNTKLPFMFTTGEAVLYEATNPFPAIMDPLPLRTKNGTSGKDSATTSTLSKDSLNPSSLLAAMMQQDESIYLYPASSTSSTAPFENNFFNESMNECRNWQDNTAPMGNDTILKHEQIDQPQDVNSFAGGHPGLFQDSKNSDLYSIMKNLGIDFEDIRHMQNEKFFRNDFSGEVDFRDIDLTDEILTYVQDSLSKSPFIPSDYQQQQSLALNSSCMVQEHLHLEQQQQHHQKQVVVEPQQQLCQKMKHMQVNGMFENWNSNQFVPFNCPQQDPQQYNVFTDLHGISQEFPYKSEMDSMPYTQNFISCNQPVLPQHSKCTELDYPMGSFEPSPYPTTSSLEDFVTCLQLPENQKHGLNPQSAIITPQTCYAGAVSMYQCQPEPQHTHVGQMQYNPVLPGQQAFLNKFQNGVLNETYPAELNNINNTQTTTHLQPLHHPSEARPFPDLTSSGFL
As to the kind of experiment: Luminescence-based cell-based high throughput dose response assay for activators of the Aryl Hydrocarbon Receptor (AHR). [Related pubchem assays: 2796 (Primary screen (AHR activators in singlicate)), 2845 (Confirmation screen (AHR activators in triplicate)), 434939 (Counterscreen (PXR activators in triplicate)), 2804 (Summary (AHR activators))]. The experiment is classed as ADME.

T5 sequence (Q01196 whole entry, the tested form may be a part): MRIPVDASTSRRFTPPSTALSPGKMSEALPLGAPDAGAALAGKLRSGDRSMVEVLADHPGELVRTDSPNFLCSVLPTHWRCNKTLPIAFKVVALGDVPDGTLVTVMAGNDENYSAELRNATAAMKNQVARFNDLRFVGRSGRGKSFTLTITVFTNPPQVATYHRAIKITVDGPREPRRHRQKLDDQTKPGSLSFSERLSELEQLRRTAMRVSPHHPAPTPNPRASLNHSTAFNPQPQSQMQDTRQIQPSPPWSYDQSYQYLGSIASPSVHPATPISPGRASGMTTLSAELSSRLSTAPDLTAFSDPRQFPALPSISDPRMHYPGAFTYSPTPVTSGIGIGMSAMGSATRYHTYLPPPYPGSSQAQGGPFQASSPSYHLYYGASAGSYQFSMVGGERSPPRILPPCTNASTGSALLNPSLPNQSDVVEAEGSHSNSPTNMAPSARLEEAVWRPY
T5 sequence (Q13951 whole entry, the tested form may be a part): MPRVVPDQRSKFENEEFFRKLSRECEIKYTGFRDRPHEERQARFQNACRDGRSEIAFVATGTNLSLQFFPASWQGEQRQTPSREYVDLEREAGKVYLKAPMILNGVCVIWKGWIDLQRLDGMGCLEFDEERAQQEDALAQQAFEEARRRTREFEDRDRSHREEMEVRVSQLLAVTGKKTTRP
Chain of Induced myeloid leukemia cell differentiation protein Mcl-1 (Q07820 whole entry): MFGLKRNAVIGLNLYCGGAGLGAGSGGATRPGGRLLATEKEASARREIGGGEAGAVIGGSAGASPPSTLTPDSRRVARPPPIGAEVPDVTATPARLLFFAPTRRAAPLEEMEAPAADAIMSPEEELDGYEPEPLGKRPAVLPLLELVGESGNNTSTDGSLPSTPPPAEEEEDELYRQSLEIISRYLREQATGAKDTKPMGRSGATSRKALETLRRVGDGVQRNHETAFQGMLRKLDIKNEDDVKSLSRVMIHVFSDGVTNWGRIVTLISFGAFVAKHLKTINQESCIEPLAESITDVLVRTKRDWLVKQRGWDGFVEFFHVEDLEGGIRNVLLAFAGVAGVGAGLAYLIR
Chain of 26S proteasome non-ATPase regulatory subunit 14 (O00487 whole entry): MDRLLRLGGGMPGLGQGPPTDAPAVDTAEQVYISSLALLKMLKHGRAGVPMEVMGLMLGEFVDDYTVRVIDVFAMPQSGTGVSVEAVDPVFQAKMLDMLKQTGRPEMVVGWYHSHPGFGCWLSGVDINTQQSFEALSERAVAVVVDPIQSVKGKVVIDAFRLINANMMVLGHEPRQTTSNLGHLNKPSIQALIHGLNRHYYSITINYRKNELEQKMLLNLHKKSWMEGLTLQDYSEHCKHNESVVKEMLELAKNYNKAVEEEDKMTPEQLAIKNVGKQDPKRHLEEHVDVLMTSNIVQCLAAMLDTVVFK
Chain of 72 kDa type IV collagenase (P08253 whole entry): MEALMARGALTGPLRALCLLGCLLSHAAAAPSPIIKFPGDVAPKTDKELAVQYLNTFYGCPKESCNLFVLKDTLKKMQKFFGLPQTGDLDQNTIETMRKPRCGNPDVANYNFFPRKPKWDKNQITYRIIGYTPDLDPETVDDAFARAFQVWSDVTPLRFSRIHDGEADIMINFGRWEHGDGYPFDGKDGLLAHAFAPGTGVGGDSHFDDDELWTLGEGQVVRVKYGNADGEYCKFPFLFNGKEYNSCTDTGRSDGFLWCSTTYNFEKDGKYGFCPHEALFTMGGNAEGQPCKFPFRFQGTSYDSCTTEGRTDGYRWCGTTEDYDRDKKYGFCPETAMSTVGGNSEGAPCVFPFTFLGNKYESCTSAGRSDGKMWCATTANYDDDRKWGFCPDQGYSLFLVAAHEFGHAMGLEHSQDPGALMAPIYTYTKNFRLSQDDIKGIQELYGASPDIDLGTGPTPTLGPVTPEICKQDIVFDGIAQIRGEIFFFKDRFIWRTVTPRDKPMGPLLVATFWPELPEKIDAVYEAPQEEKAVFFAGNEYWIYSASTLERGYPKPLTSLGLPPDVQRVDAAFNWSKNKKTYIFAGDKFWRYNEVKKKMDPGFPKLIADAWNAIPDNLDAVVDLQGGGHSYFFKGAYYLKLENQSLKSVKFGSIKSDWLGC
Chain of SUMO-activating enzyme (Q9UBE0 whole entry): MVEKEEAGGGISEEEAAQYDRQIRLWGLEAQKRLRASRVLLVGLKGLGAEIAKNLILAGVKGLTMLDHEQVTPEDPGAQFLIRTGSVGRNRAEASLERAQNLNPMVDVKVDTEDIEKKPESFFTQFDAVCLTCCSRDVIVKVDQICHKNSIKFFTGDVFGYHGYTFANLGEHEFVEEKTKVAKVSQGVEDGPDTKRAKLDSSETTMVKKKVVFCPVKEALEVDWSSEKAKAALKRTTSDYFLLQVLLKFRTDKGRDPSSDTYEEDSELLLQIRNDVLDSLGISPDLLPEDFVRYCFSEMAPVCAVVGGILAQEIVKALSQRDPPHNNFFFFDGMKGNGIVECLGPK
Chain of SUMO-activating enzyme (Q9UBT2 whole entry): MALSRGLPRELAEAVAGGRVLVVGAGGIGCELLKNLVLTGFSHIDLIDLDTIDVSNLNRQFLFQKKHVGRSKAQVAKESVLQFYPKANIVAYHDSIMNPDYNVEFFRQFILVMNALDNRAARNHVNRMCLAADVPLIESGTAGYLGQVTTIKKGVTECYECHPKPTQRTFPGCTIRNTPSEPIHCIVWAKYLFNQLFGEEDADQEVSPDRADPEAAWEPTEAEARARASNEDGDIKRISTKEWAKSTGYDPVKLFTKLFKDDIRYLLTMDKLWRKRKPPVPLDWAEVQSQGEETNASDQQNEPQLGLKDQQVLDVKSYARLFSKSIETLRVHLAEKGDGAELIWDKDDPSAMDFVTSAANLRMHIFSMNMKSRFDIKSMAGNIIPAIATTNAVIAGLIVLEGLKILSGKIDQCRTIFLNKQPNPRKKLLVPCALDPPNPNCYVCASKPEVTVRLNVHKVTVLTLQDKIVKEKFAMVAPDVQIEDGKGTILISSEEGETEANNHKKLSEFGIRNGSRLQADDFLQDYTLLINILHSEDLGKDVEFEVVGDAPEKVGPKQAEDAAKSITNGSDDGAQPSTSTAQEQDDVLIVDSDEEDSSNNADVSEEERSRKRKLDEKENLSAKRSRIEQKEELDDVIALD

Consider `O=C(Nc1nccs1)c1cccc(S(=O)(=O)N2CCCCC2)c1`, for which the IC50 in experiment [1] was > 50 µM (inactive).
As for `CN(C(=O)c1ccc2c(c1)SC1=NS(=O)(=O)CCN12)C(c1ccccc1)c1ccccc1`, the half-maximal activity concentration (AC50) in experiment [2] is 138 µM (active); in [3], 2.1 µM (active). The EC50 in experiment [4] is reported as > 195 µM (not active).
On to `CCc1cc2cc(C(=O)Nc3ccccc3F)sc2s1`, for which the IC50 in experiment [1] was > 50 µM (inactive).
`Cc1ccc(O)c(NC(=O)c2cc3nc4c(c(C(F)(F)F)n3n2)CCc2ccccc2-4)c1`: the IC50 in experiment [5] was 63.7 µM (active).
On to `Cc1ccc(S(=O)(=O)Nc2nc(-c3ccccc3)cs2)cc1`, for which the EC50 in experiment [6] is > 100 µM (inactive).
On to `Oc1c(N=NC(S)=Nc2ccccc2F)c2ccccc2n1Cc1ccccc1Cl`, for which the half-maximal activity concentration (AC50) was 210 µM (active) in experiment [2] and 18.7 µM (active) in [9]. Further, the EC50 in [7] is 17.5 µM (active); in experiment [8], 1.28 µM (active).
As to `O=C(CC1Sc2ccccc2NC1=O)OCc1cc(=O)oc2cc(O)ccc12` (centres undefined), the half-maximal inhibitory concentration (IC50) in [10] was 19.6 µM (active); in [11], 2.71 µM (active).
Consider `Cc1cccc(N2CCc3c2nc2ccc(Br)cc2c3N)c1`, for which the half-maximal activity concentration (AC50) in experiment [2] was 94.9 µM (active); in experiment [3] it was 8.82 µM (active). Further, the EC50 in [12] is 1.67 µM (active); in experiment [13] it was 21.4 µM (inconclusive). In experiment [14], the half-maximal inhibitory concentration (IC50) is recorded as > 50 µM (not active).
In the case of `CC(C)CNC(=O)c1c(N)n(Cc2ccco2)c2nc3ccccc3nc12`, the figures for the IC50 in [15], in [10] and in experiment [11] were 4.4 µM (not active), 11.7 µM (active) and 1.86 µM (active), respectively.
Take `CCCCC1=CC2=CC(=O)C(C)(OC(=O)C3CCCC3)C(=O)C2=CO1` (centres undefined): the half-maximal inhibitory concentration (IC50) in experiment [16] was 7.84 µM (active); in [17] it was 7.64 µM (active); in experiment [18], > 100 µM (inactive). Further, in experiment [6], the EC50 was > 100 µM (inactive).
Regarding `COc1cccc2c(=O)c3cccc(N)c3[nH]c12`, the half-maximal inhibitory concentration (IC50) was 6.38 µM (not active) in experiment [15], > 100 µM (inactive) in experiment [10] and > 100 µM (inactive) in [11]. The half-maximal effective concentration (EC50) in experiment [19] is reported as > 91.8 µM (not active).
